Experimental data: patent US7390923B2, “Propionamide derivatives useful as androgen receptor modulators” (Orion Corporation, priority 2003, dated 2008)

Target: T1, androgen receptor (AR) (Rattus norvegicus, UniProt P15207)
T1 construct: Ventral prostates were obtained form rats castrated 24 h prior to sacrifice; from tissue; host or cells: rat ventral prostate cytosol (castrated rats, charcoal-treated)
T1 sequence (P15207 1-902): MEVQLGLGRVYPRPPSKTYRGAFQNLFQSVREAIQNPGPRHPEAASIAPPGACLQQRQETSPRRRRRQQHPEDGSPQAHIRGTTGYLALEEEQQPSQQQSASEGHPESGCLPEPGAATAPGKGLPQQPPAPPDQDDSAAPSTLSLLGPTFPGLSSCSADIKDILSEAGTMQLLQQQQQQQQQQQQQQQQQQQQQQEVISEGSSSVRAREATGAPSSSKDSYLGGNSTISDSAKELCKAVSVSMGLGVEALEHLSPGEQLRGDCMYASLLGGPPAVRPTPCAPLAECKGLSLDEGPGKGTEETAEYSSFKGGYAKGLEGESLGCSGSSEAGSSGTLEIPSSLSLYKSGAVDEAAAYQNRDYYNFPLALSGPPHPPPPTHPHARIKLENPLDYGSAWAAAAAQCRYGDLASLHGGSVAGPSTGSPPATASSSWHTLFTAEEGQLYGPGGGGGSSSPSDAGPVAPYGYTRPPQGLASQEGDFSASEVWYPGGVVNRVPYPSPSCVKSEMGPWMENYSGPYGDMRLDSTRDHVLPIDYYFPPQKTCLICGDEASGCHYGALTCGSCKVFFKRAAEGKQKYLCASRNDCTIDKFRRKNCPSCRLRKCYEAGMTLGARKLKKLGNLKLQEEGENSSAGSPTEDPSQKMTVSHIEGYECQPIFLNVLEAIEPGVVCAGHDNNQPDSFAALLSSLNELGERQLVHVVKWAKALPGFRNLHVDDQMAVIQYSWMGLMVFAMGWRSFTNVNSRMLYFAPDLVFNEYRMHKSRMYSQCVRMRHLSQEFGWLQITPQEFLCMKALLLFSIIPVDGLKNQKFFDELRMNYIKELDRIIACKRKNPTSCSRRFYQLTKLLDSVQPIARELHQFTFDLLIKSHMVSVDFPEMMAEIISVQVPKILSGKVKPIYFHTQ
Assay: AR binding assay, competition with [3H]-mibolerone binding in rat ventral prostate cytosol
Details: 1 nM [3H]-mibolerone, overnight at 0° C.; for inhibition at 0.2 µM / Inhibition (%) of [3H]-mibolerone binding at 0.2 μM: test compound 0.2 μM; for inhibition at 2 µM / Inhibition (%) of [3H]-mibolerone binding at 2.0 μM: test compound 2.0 μM
Method: Ventral prostates were obtained form rats castrated 24 h prior to sacrifice. Fresh prostate was minced and washed with Buffer A (Schilling and Liao, Prostate, 5:581-588, 1984). The minces were then homogenized in 3× volume of Buffer A containing protease inhibitors (Complete, Mini, EDTA-free Roche). The homogenate was centrifuged at 30000 g for 30 min. The resultant supernatants were treated with 1×volume of dextran-coated charcoal solution (12.5 g activated charcoal, 12.5 g dextran per liter of buffer A) to remove endogenous steroids. The samples were incubated for 5 min and centrifuged at 16000 g for 10 min. Aliquots of the charcoal-treated cytosol were taken for androgen receptor assays. All procedures were carried out at 0-4° C.
Cytosol androgen receptor concentration was determined as described (Isomaa et al., Endocrinology, 111: 833-843, 1982) with minor modifications. Cytosol preparations were prepared as described above, and bound and free steroids were separated by treatment with an equal volume of dextran-charcoal suspension for 5 min at 4° C. followed by centrifugation at 16000 g for 10 min. Bound radioactivity was determined by counting supernatant fractions in 1 ml of OptiPhase HiSafe3 or OptiPhase Supermix (PerkinElmer).
Cytosol preparations were labelled with 1 nM [^3H]-mibolerone overnight at 0° C. (total). To determine AR binding activity of the compounds of the present invention (test compounds), the ability of test compounds to compete with [^3H]7α,17α-dimethyl-17β-hydroxy-4-estren-3-one ([^3H]-mibolerone) binding was studied. 1 nM [^3H]-mibolerone and test compounds in two concentrations (0.2 and 2 uM) were incubated overnight at 0° C. To determine non-specific binding, parallel incubations were carried out using 1 nM concentration [^3H]-mibolerone with 500-fold molar excess of unlabelled testosterone. Two to four replicates were used for each sample. After incubation, bound and free steroids were separated as described above and bound radioactivity was determined. The ability of the test compounds to bind AR is reported as reduction in bound radioactivity obtained with 1 nM [^3H]-mibolerone. The results (% inhibition) were calculated as: % inhibition=100−(100×(averagetest compound/averagetotal)).

SMILES: Cc1cc(NC(=O)C(C)(O)COc2ccc(F)c(F)c2)ccc1[N+](=O)[O-] (stereo not shown) [Example 28, 3-(3,4-Difluorophenoxy)-2-hydroxy-2-methyl-N-(3-methyl-4-nitrophenyl)propionamide]
- inhibition at 0.2 µM: 90%
- inhibition at 2 µM: 88%

SMILES: Cc1cc(NC(=O)C(C)(O)COc2cc(C)c(Cl)c(C)c2Cl)ccc1[N+](=O)[O-] (stereo not shown) [Example 29, 3-(2,4-Dichloro-3,5-dimethylphenoxy)-2-hydroxy-2-methyl-N-(3-methyl-4-nitrophenyl)propionamide]
- inhibition at 0.2 µM: 92%
- inhibition at 2 µM: 90%

SMILES: Cc1cc(NC(=O)C(C)(O)COc2ccc3cc(Br)ccc3c2)ccc1[N+](=O)[O-] (stereo not shown) [Example 30, 3-(6-Bromonaphtalen-2-yloxy)-2-hydroxy-2-methyl-N-(3-methyl-4-nitrophenyl)-propionamide]
- Inhibition (%) of [3H]-mibolerone binding at 0.2 μM: 80%
- Inhibition (%) of [3H]-mibolerone binding at 2.0 μM: 99%

SMILES: CC(=O)Nc1ccc(OCC(C)(O)C(=O)Nc2ccc([N+](=O)[O-])c(C)c2)cc1C(F)(F)F (stereo not shown) [Example 31, 3-(4-Acetylamino-3-trifluoromethylphenoxy)-2-hydroxy-2-methyl-N-(3-methyl-4-nitrophenyl)propionamide]
- inhibition at 0.2 µM: 18%
- inhibition at 2 µM: 75%

SMILES: Cc1cc(NC(=O)C(C)(O)COc2ccc(C(=O)c3ccc(Cl)cc3)cc2)ccc1[N+](=O)[O-] (stereo not shown) [Example 36, 3-[4-(4-Chlorobenzoyl)phenoxy]-2-hydroxy-2-methyl-N-(3-methyl-4-nitrophenyl)propionamide]
- inhibition at 0.2 µM: 3%
- inhibition at 2 µM: 50%

SMILES: Cc1cc(NC(=O)C(C)(O)COc2ccc(C#N)c(F)c2)ccc1[N+](=O)[O-] (stereo not shown) [Example 42, 3-(4-Cyano-3-fluorophenoxy)-2-hydroxy-2-methyl-N-(3-methyl-4-nitrophenyl)propionamide]
- inhibition at 0.2 µM: 83%
- inhibition at 2 µM: 97%

SMILES: Cc1cc(NC(=O)[C@@](C)(O)COc2ccc(C#N)c(F)c2)ccc1[N+](=O)[O-] [Example 43, (2S)-3-(4-Cyano-3-fluorophenoxy)-2-hydroxy-2-methyl-N-(3-methyl-4-nitrophenyl)propionamide]
- inhibition at 0.2 µM: 95%
- inhibition at 2 µM: 99%

SMILES: Cc1cc(NC(=O)C(C)(O)COc2ccc(Cl)c([N+](=O)[O-])c2)ccc1[N+](=O)[O-] (stereo not shown) [Example 44, 3-(4-Chloro-3-nitrophenoxy)-2-hydroxy-2-methyl-N-(3-methyl-4-nitrophenyl)propionamide]
- inhibition at 0.2 µM: 83%
- inhibition at 2 µM: 100%

SMILES: CCOC(=O)Nc1ccc(OCC(C)(O)C(=O)Nc2ccc([N+](=O)[O-])c(C)c2)cc1F (stereo not shown) [Example 50, {2-Fluoro-4-[2-hydroxy-2-(3-methyl-4-nitrophenylcarbamoyl)propoxy]-phenyl}carbamic acid ethyl ester]
- inhibition at 0.2 µM: 96%
- inhibition at 2 µM: 99%

SMILES: CC(O)(COc1ccc(C#N)c(F)c1)C(=O)Nc1ccc([N+](=O)[O-])c(CO)c1 (stereo not shown) [Example 51, 3-(4-Cyano-3-fluorophenoxy)-2-hydroxy-N-(3-hydroxymethyl-4-nitrophenyl)-2-methylpropionamide]
- inhibition at 0.2 µM: 73%
- inhibition at 2 µM: 92%

SMILES: Cc1cc(NC(=O)C(C)(O)CNc2ccc(F)cc2)ccc1[N+](=O)[O-] (stereo not shown) [Example 52, 3-(4-Fluorophenylamino)-2-hydroxy-2-methyl-N-(3-methyl-4-nitrophenyl)propionamide]
- inhibition at 0.2 µM: 90%
- inhibition at 2 µM: 115%

SMILES: Cc1cc(NC(=O)C(C)(O)CNc2ccc(C#N)cc2)ccc1[N+](=O)[O-] (stereo not shown) [Example 55, 3-(4-Cyanophenylamino)-2-hydroxy-2-methyl-N-(3-methyl-4-nitrophenyl)propionamide]
- inhibition at 0.2 µM: 87%
- inhibition at 2 µM: 99%

SMILES: Cc1cc(NC(=O)C(C)(O)CNc2ccc(C#N)c(Cl)c2)ccc1[N+](=O)[O-] (stereo not shown) [Example 56, 3-(3-Chloro-4-cyanophenylamino)-2-hydroxy-2-methyl-N-(3-methyl-4-nitrophenyl)propionamide]
- inhibition at 0.2 µM: 90%
- inhibition at 2 µM: 95%

SMILES: Cc1cc(NC(=O)C(C)(O)COc2ccncc2)ccc1[N+](=O)[O-] (stereo not shown) [Example 58, 2-Hydroxy-2-methyl-N-(3-methyl-4-nitrophenyl)-3-(pyridin-4-yloxo)propionamide]
- Inhibition (%) of [3H]-mibolerone binding at 0.2 μM: 84%
- Inhibition (%) of [3H]-mibolerone binding at 2.0 μM: 93%

SMILES: Cc1cc(NC(=O)C(C)(O)COc2ccc(C#N)c(Cl)c2)ccc1[N+](=O)[O-] (stereo not shown) [Example 63, 3-(3-Chloro-4-cyanophenoxy)-2-hydroxy-2-methyl-N-(3-methyl-4-nitrophenyl)propionamide]
- inhibition at 0.2 µM: 92%
- inhibition at 2 µM: 98%

SMILES: Cc1cc([N+](=O)[O-])ccc1NC(=O)C(C)(O)COc1ccc(C#N)c(F)c1 (stereo not shown) [Example 64, 3-(4-Cyano-3-fluorophenoxy)-2-hydroxy-2-methyl-N-(2-methyl-4-nitrophenyl)propionamide]
- inhibition at 0.2 µM: 79%
- inhibition at 2 µM: 89%

SMILES: CC(O)(COc1ccc(C#N)c(F)c1)C(=O)Nc1ccc([N+](=O)[O-])c(C=O)c1 (stereo not shown) [Example 66, 3-(4-Cyano-3-fluorophenoxy)-N-(3-formyl-4-nitrophenyl)-2-hydroxy-2-methylpropionamide]
- inhibition at 0.2 µM: 69%
- inhibition at 2 µM: 93%

SMILES: Cc1cc(NC(=O)C(C)(O)COc2ccc(CCCCl)cc2)ccc1[N+](=O)[O-] (stereo not shown) [Example 79, 3-[4-(3-Chloropropyl)phenoxy]-2-hydroxy-2-methyl-N-(3-methyl-4-nitrophenyl)propionamide]
- inhibition at 0.2 µM: 89%
- inhibition at 2 µM: 98%

SMILES: Cc1cc(NC(=O)C(C)(O)COc2ccc(OCCCl)cc2)ccc1[N+](=O)[O-] (stereo not shown) [Example 80, 3-[4-(2-Chloroethoxy)phenoxy]-2-hydroxy-2-methyl-N-(3-methyl-4-nitrophenyl)propionamide]
- inhibition at 0.2 µM: 87%
- inhibition at 2 µM: 99%

SMILES: COCc1ccc(OCC(C)(O)C(=O)Nc2ccc([N+](=O)[O-])c(C)c2)cc1 (stereo not shown) [Example 81, 2-Hydroxy-3-(4-methoxymethylphenoxy)-2-methyl-N-(3-methyl-4-nitrophenyl)propionamide]
- inhibition at 0.2 µM: 85%
- inhibition at 2 µM: 98%
